Data from the supplement of paper PMC5662764.
± gives the standard deviation of the averaged measurements.

Columns and labels:
Test in all cases: normalised growth rate inhibition (GR value) relative to DMSO control (GR (1 = untreated growth, 0 = cytostasis, <0 = cytotoxic)); higher = less growth inhibition
Conditions in all cases: 72 h
MCF7 = test system: MCF7
Method: (§1)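 Breast cancer cell lines (BT-20, Hs 578T, MCF 10A, MCF7, MDA-MB-231, SK-BR-3) were plated in 384-well plates and treated 24 h later with drugs at six concentrations (0.04-10 µM). Viable cells were counted by Hoechst/dead-cell-stain imaging at 0 and 72 h. Counts were normalised to DMSO controls on the same plate to give the relative cell count and the growth-rate inhibition (GR) value; technical plate triplicates were averaged for each biological replicate.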

HS578T = test system: HS578T
Method: as §1

MCF10A = test system: MCF10A
Method: as §1

SKBR3 = test system: SKBR3
Method: as §1

MDAMB231 = test system: MDAMB231
Method: as §1

BT20 = test system: BT20
Method: as §1

Compound | normalised growth rate inhibition (MCF7; 0.04 µM) | normalised growth rate inhibition (MCF7; 0.12 µM) | normalised growth rate inhibition (MCF7; 0.37 µM) | normalised growth rate inhibition (MCF7; 1.11 µM) | normalised growth rate inhibition (MCF7; 3.33 µM) | normalised growth rate inhibition (MCF7; 10 µM) | normalised growth rate inhibition (HS578T; 0.04 µM) | normalised growth rate inhibition (HS578T; 0.12 µM) | normalised growth rate inhibition (HS578T; 0.37 µM) | normalised growth rate inhibition (HS578T; 1.11 µM) | normalised growth rate inhibition (HS578T; 3.33 µM) | normalised growth rate inhibition (HS578T; 10 µM) | normalised growth rate inhibition (MCF10A; 0.04 µM) | normalised growth rate inhibition (MCF10A; 0.12 µM) | normalised growth rate inhibition (MCF10A; 0.37 µM) | normalised growth rate inhibition (MCF10A; 1.11 µM) | normalised growth rate inhibition (MCF10A; 3.33 µM) | normalised growth rate inhibition (MCF10A; 10 µM) | normalised growth rate inhibition (SKBR3; 0.04 µM) | normalised growth rate inhibition (SKBR3; 0.12 µM) | normalised growth rate inhibition (SKBR3; 0.37 µM) | normalised growth rate inhibition (SKBR3; 1.11 µM) | normalised growth rate inhibition (SKBR3; 3.33 µM) | normalised growth rate inhibition (SKBR3; 10 µM) | normalised growth rate inhibition (MDAMB231; 0.04 µM) | normalised growth rate inhibition (MDAMB231; 0.12 µM) | normalised growth rate inhibition (MDAMB231; 0.37 µM) | normalised growth rate inhibition (MDAMB231; 1.11 µM) | normalised growth rate inhibition (MDAMB231; 3.33 µM) | normalised growth rate inhibition (MDAMB231; 10 µM) | normalised growth rate inhibition (BT20; 0.04 µM) | normalised growth rate inhibition (BT20; 0.12 µM) | normalised growth rate inhibition (BT20; 0.37 µM) | normalised growth rate inhibition (BT20; 1.11 µM) | normalised growth rate inhibition (BT20; 3.33 µM) | normalised growth rate inhibition (BT20; 10 µM)
Nc1ccc(C(=O)Nc2cccc(-c3nc(N4CCOCC4)c4oc5ncccc5c4n3)c2)cn1 | 1.06 ± 0.031 | 0.963 ± 0.034 | 0.856 ± 0.046 | 0.606 ± 0.041 | 0.37 ± 0.12 | -0.043 ± 0.35 | 1.02 ± 0.029 | 0.984 ± 0.013 | 0.972 ± 0.033 | 0.865 ± 0.022 | 0.668 ± 0.029 | 0.13 ± 0.053 | 1.015 ± 0.0057 | 0.989 ± 0.01 | 0.951 ± 0.022 | 0.824 ± 0.025 | 0.734 ± 0.051 | 0.301 ± 0.043 | 1.12 ± 0.043 | 1.03 ± 0.053 | 1.03 ± 0.075 | 0.89 ± 0.072 | 0.769 ± 0.052 | 0.17 ± 0.047 | 1.04 ± 0.032 | 0.954 ± 0.058 | 0.869 ± 0.082 | 0.747 ± 0.094 | 0.657 ± 0.14 | 0.0924 ± 0.24 | 1.06 ± 0.025 | 0.999 ± 0.032 | 0.938 ± 0.029 | 0.746 ± 0.053 | 0.577 ± 0.07 | 0.0483 ± 0.094
CS(=O)(=O)CCNCc1ccc(-c2ccc3ncnc(Nc4ccc(OCc5cccc(F)c5)c(Cl)c4)c3c2)o1 [lapatinib] | 0.803 ± 0.12 | 0.872 ± 0.13 | 0.947 ± 0.074 | 0.936 ± 0.092 | 0.926 ± 0.051 | 0.321 ± 0.14 | 0.982 ± 0.025 | 0.9754 ± 0.0072 | 0.976 ± 0.019 | 0.985 ± 0.015 | 1.01 ± 0.027 | 0.636 ± 0.14 | 0.975 ± 0.029 | 0.957 ± 0.034 | 0.943 ± 0.047 | 0.895 ± 0.075 | 0.747 ± 0.16 | 0.288 ± 0.17 | 0.0194 ± 0.093 | -0.00655 ± 0.072 | -0.0149 ± 0.1 | -0.0045 ± 0.12 | 0.00322 ± 0.13 | 0.133 ± 0.035 | 0.878 ± 0.033 | 0.9385 ± 0.0078 | 0.955 ± 0.01 | 0.948 ± 0.025 | 0.947 ± 0.011 | 0.62 ± 0.11 | 0.857 ± 0.091 | 0.957 ± 0.075 | 0.965 ± 0.053 | 0.991 ± 0.062 | 0.958 ± 0.11 | 0.749 ± 0.15
C=CC(=O)Nc1cc2c(Nc3ccc(F)c(Cl)c3)ncnc2cc1OCCCN1CCOCC1 [canertinib] | 0.9894 ± 0.0058 | 0.884 ± 0.035 | 0.801 ± 0.053 | 0.67 ± 0.062 | 0.505 ± 0.13 | -0.367 ± 0.092 | 1 ± 0.028 | 0.996 ± 0.028 | 0.969 ± 0.019 | 0.944 ± 0.011 | 0.851 ± 0.034 | -0.289 ± 0.13 | 0.702 ± 0.24 | 0.498 ± 0.26 | 0.313 ± 0.2 | 0.173 ± 0.1 | 0.105 ± 0.033 | -0.39 ± 0.22 | 0.148 ± 0.089 | 0.023 ± 0.12 | -0.0304 ± 0.15 | -0.0844 ± 0.15 | -0.124 ± 0.14 | -0.261 ± 0.12 | 1.04 ± 0.029 | 0.965 ± 0.015 | 0.909 ± 0.026 | 0.782 ± 0.034 | 0.572 ± 0.099 | -0.249 ± 0.077 | 0.896 ± 0.044 | 0.8804 ± 0.0073 | 0.831 ± 0.027 | 0.814 ± 0.045 | 0.71 ± 0.061 | -0.13 ± 0.097
Cn1cc(-c2[nH]c3cc(NC(=O)[C@H](N)C4CCCCC4)cc4c3c2C=NNC4=O)cn1 | 0.579 ± 0.056 | 0.411 ± 0.041 | 0.335 ± 0.04 | 0.235 ± 0.032 | 0.178 ± 0.018 | 0.0527 ± 0.038 | 0.956 ± 0.018 | 0.601 ± 0.064 | 0.107 ± 0.12 | -0.0219 ± 0.17 | -0.0376 ± 0.14 | -0.103 ± 0.15 | 0.9601 ± 0.0087 | 0.914 ± 0.022 | 0.83 ± 0.037 | 0.63 ± 0.071 | 0.267 ± 0.17 | -0.0312 ± 0.061 | -0.00482 ± 0.19 | -0.09 ± 0.2 | -0.136 ± 0.17 | -0.151 ± 0.18 | -0.174 ± 0.14 | -0.183 ± 0.2 | 0.903 ± 0.039 | 0.913 ± 0.087 | 0.747 ± 0.14 | 0.535 ± 0.21 | 0.297 ± 0.22 | -0.0135 ± 0.14 | 0.886 ± 0.045 | 0.96 ± 0.035 | 0.9538 ± 0.0067 | 0.931 ± 0.027 | 0.8 ± 0.063 | 0.129 ± 0.15
FC(F)c1nc2ccccc2n1-c1nc(N2CCOCC2)nc(N2CCOCC2)n1 [ZSTK-474] | 0.664 ± 0.2 | 0.37 ± 0.18 | 0.138 ± 0.048 | 0.0423 ± 0.065 | 0.00162 ± 0.071 | -0.0168 ± 0.11 | 0.806 ± 0.017 | 0.663 ± 0.032 | 0.522 ± 0.088 | 0.394 ± 0.12 | 0.289 ± 0.1 | 0.148 ± 0.11 | 0.954 ± 0.065 | 0.842 ± 0.12 | 0.698 ± 0.16 | 0.472 ± 0.083 | 0.296 ± 0.049 | 0.179 ± 0.069 | 0.783 ± 0.087 | 0.46 ± 0.06 | 0.161 ± 0.1 | 0.0252 ± 0.12 | -0.0251 ± 0.15 | -0.031 ± 0.13 | 0.881 ± 0.062 | 0.828 ± 0.055 | 0.728 ± 0.025 | 0.646 ± 0.061 | 0.511 ± 0.077 | 0.386 ± 0.11 | 0.971 ± 0.029 | 0.855 ± 0.16 | 0.615 ± 0.27 | 0.211 ± 0.17 | 0.0764 ± 0.14 | -0.0662 ± 0.025
Cc1cn(-c2cc(NC(=O)c3ccc(C)c(Nc4nccc(-c5cccnc5)n4)c3)cc(C(F)(F)F)c2)cn1 [nilotinib] | 1.03 ± 0.021 | 1.04 ± 0.038 | 0.971 ± 0.021 | 0.958 ± 0.014 | 0.956 ± 0.059 | 0.0407 ± 0.15 | 1.09 ± 0.056 | 1.1 ± 0.072 | 1.09 ± 0.078 | 1.07 ± 0.06 | 1.07 ± 0.093 | 0.028 ± 0.096 | 1 ± 0.036 | 0.991 ± 0.035 | 0.978 ± 0.029 | 0.992 ± 0.044 | 0.982 ± 0.035 | 0.507 ± 0.14 | 1.1 ± 0.074 | 1.11 ± 0.043 | 1.15 ± 0.029 | 1.11 ± 0.052 | 1.08 ± 0.068 | 0.208 ± 0.097 | 0.943 ± 0.038 | 0.914 ± 0.099 | 0.863 ± 0.1 | 0.805 ± 0.14 | 0.818 ± 0.13 | 0.00998 ± 0.16 | 1 ± 0.043 | 1.01 ± 0.044 | 1.02 ± 0.039 | 0.996 ± 0.043 | 1 ± 0.039 | 0.0181 ± 0.099
Cc1ccc(NC(=O)c2ccc(CN3CCN(C)CC3)cc2)cc1Nc1nccc(-c2cccnc2)n1 [imatinib] | 1.06 ± 0.084 | 1.08 ± 0.088 | 1.08 ± 0.076 | 1.06 ± 0.057 | 1.04 ± 0.075 | 0.9 ± 0.039 | 0.997 ± 0.018 | 0.996 ± 0.011 | 1.01 ± 0.034 | 1.03 ± 0.041 | 1.05 ± 0.059 | 1.05 ± 0.11 | 1.002 ± 0.0079 | 1.001 ± 0.0023 | 0.9962 ± 0.003 | 1 ± 0.014 | 1.01 ± 0.018 | 0.998 ± 0.031 | 1.05 ± 0.04 | 1.07 ± 0.045 | 1.04 ± 0.061 | 1.08 ± 0.046 | 1.11 ± 0.066 | 0.991 ± 0.043 | 1.01 ± 0.055 | 0.999 ± 0.032 | 1.02 ± 0.04 | 1 ± 0.045 | 1.02 ± 0.028 | 0.915 ± 0.022 | 1 ± 0.033 | 1.02 ± 0.075 | 0.99 ± 0.03 | 1.02 ± 0.037 | 0.991 ± 0.042 | 0.981 ± 0.057
